# Laboratory results reported in ChEMBL document CHEMBL4819130 (Bioorg Med Chem, 2021).
# Activity calls are given as the source filed them. The calls are words filed in the database; no cut-off is given here.
# Experiments:
# Cocaine esterase = target: T1, Cocaine esterase (Homo sapiens, UniProt O00748); experiment: Inhibition of CES2 in human liver microsomes assessed as reduction in substrate hydrolysis using fluorescein diacetate as substrate preincubated for 3 mins followed by substrate addition and measured after 20 mins by fluorescence analysis
# T1 sequence (O00748 whole entry): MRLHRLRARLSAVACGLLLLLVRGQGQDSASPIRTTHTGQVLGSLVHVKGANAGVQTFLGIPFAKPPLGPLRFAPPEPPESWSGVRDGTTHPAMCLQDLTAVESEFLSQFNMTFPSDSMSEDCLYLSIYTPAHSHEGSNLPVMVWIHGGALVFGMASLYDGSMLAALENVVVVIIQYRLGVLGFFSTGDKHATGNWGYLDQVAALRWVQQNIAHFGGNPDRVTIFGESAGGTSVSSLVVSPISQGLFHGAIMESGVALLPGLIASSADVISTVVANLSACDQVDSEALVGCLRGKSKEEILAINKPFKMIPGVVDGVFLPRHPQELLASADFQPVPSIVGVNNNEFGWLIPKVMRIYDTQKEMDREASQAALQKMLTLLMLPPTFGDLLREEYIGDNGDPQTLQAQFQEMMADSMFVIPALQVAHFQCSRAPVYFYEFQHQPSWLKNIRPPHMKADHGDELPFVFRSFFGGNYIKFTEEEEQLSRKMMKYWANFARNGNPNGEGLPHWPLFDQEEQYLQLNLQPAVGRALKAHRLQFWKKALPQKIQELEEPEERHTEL
# 3T3-L1 [1] = experiment: Inhibition of adipogenesis in mouse 3T3-L1 cells assessed as reduction in lipid droplet formation at 40 uM incubated with compound for 72 hrs in presence of adipogenesis-inducing agent followed by culturing in normal medium in presence of compound for 48 hrs by Oil red O staining based analysis; format: functional, cell-based; details: time 120.0 hrs
# HepG2 = experiment: Cytotoxicity against human HepG2 cells assessed as reduction in cell viability at <40 uM after 48 hrs by CCK8 assay; format: cell-based; details: hepg2, 48 h
# 3T3-L1 [2] = experiment: Inhibition of adipogenesis in mouse 3T3-L1 cells assessed as reduction in lipid droplet formation at 10 uM incubated with compound for 72 hrs in presence of adipogenesis-inducing agent followed by culturing in normal medium in presence of compound for 48 hrs by Oil red O staining based analysis; format: functional, cell-based; details: time 120.0 hrs
# 3T3-L1 [3] = experiment: Cytotoxicity against mouse 3T3-L1 cells assessed as reduction in cell viability at <40 uM after 48 hrs by CCK8 assay; format: cell-based; details: 3t3-l1, 48 h
# Caco-2 = experiment: Cytotoxicity against human Caco-2 cells assessed as reduction in cell viability at <40 uM after 48 hrs by CCK8 assay; format: cell-based; details: caco-2, 48 h
structure (smiles),measurement,setting,value
COc1ccc(CC2C(=O)N(c3ccccc3)N=C2c2ccccc2)cc1 (stereo unspecified),IC50,Cocaine esterase,6.68 µM
Cc1ccc(C2=NN(c3ccccc3)C(=O)C2Cc2ccccc2)cc1 (stereo unspecified),IC50,Cocaine esterase,3.82 µM
CCC1C(=O)N(c2ccccc2)N=C1c1ccccc1 (stereo unspecified),IC50,Cocaine esterase,9.04 µM
O=C1C(Cc2ccccc2)C(c2ccc(Br)cc2)=NN1c1ccccc1 (stereo unspecified),IC50,Cocaine esterase,6.19 µM
O=C1C(Cc2ccc(Br)cc2)C(c2ccccc2)=NN1c1ccccc1 (stereo unspecified),IC50,Cocaine esterase,8.24 µM
C=CCC1C(=O)N(c2ccccc2)N=C1c1ccccc1 (stereo unspecified),IC50,Cocaine esterase,7.76 µM
CCCCCCCC/C=C\CCCCCCCC(=O)OCC(O)COP(=O)(O)O (stereo unspecified),IC50,Cocaine esterase,1.57 µM
Cc1ccc(CC2C(=O)N(C3CCCCC3)N=C2c2ccc(C)cc2)cc1 (stereo unspecified),inhibition,3T3-L1 [1],Active
same,Activity,HepG2,Non-Toxic
same,inhibition,3T3-L1 [2],Active
same,Activity,3T3-L1 [3],Non-Toxic
same,Activity,Caco-2,Non-Toxic
O=C1C(Cc2ccccc2)C(c2ccccc2)=NN1C1CCCCC1 (stereo unspecified),IC50,Cocaine esterase,9.12 µM
O=C1C(Cc2ccccc2[N+](=O)[O-])C(c2ccccc2)=NN1c1ccccc1 (stereo unspecified),IC50,Cocaine esterase,10.9 µM
Cc1ccc(CC2C(=O)N(c3ccccc3)N=C2c2ccccc2)cc1 (stereo unspecified),IC50,Cocaine esterase,5.16 µM
Cc1cccc(CC2C(=O)N(c3ccccc3)N=C2c2ccccc2)c1 (stereo unspecified),IC50,Cocaine esterase,7.11 µM
